Laboratory results as given in PubChem BioAssay (NCI).
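Growth conditions: 96-well plates. Treatment: test compound, 48 hours, 5 concentrations. Analysis: linear interpolation between bracketing concentrations; unreached endpoints set to highest concentration. TGI is the concentration that stops growth completely.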

Legend:
Assay in all cases: NCI-60 cell line screen, 48 h
T-47D breast = tested on: T-47D breast
IGROV1 ovarian = tested on: IGROV1 ovarian
U251 CNS = tested on: U251 CNS
CAKI-1 renal = tested on: CAKI-1 renal
COLO 205 colon = tested on: COLO 205 colon
TK-10 renal = tested on: TK-10 renal
HS 578T breast = tested on: HS 578T breast
NCI/ADR-RES ovarian = tested on: NCI/ADR-RES ovarian
HL-60(TB) leukemia = tested on: HL-60(TB) leukemia
A498 renal = tested on: A498 renal
DU-145 prostate = tested on: DU-145 prostate
SF-295 CNS = tested on: SF-295 CNS
SNB-19 CNS = tested on: SNB-19 CNS
OVCAR-5 ovarian = tested on: OVCAR-5 ovarian
BT-549 breast = tested on: BT-549 breast
EKVX NSCLC = tested on: EKVX NSCLC
UACC-62 melanoma = tested on: UACC-62 melanoma
K-562 leukemia = tested on: K-562 leukemia
LOX IMVI melanoma = tested on: LOX IMVI melanoma
HCT-15 colon = tested on: HCT-15 colon
ACHN renal = tested on: ACHN renal
SR leukemia = tested on: SR leukemia
SK-MEL-5 melanoma = tested on: SK-MEL-5 melanoma
MCF7 breast = tested on: MCF7 breast
NCI-H522 lung = tested on: NCI-H522 lung
OVCAR-8 ovarian = tested on: OVCAR-8 ovarian
RXF 393 renal = tested on: RXF 393 renal
PC-3 prostate = tested on: PC-3 prostate
SK-MEL-28 melanoma = tested on: SK-MEL-28 melanoma
MDA-MB-435 = tested on: MDA-MB-435
MALME-3M melanoma = tested on: MALME-3M melanoma
SN12C renal = tested on: SN12C renal
SF-539 CNS = tested on: SF-539 CNS
A549 NSCLC = tested on: A549 NSCLC
OVCAR-4 ovarian = tested on: OVCAR-4 ovarian
MDA-MB-231 breast = tested on: MDA-MB-231 breast
NCI-H460 lung = tested on: NCI-H460 lung
SNB-75 CNS = tested on: SNB-75 CNS
786-0 renal = tested on: 786-0 renal
SK-MEL-2 melanoma = tested on: SK-MEL-2 melanoma
HCT-116 colon = tested on: HCT-116 colon
HT29 colon = tested on: HT29 colon
MDA-N = tested on: MDA-N
NCI-H226 lung = tested on: NCI-H226 lung
HCC-2998 colon = tested on: HCC-2998 colon
HOP-92 NSCLC = tested on: HOP-92 NSCLC
UACC-257 melanoma = tested on: UACC-257 melanoma
SK-OV-3 ovarian = tested on: SK-OV-3 ovarian
HOP-62 NSCLC = tested on: HOP-62 NSCLC
UO-31 renal = tested on: UO-31 renal
SF-268 CNS = tested on: SF-268 CNS
OVCAR-3 ovarian = tested on: OVCAR-3 ovarian
NCI-H23 lung = tested on: NCI-H23 lung
KM12 colon = tested on: KM12 colon
SW-620 colon = tested on: SW-620 colon
RPMI-8226 leukemia = tested on: RPMI-8226 leukemia
MOLT-4 leukemia = tested on: MOLT-4 leukemia
CCRF-CEM leukemia = tested on: CCRF-CEM leukemia
M14 melanoma = tested on: M14 melanoma

C#CC(O)/C=C/CCCCCCC#CC/C=C\CC#CCCCCCCCCC(O)C#C (centres undefined)
TGI (T-47D breast): 36.3 µM | TGI (IGROV1 ovarian): 1.12 µM | TGI (U251 CNS): > 55.8 µM | TGI (CAKI-1 renal): 9.08 µM | TGI (COLO 205 colon): 7.41 µM | TGI (TK-10 renal): 28.2 µM | TGI (HS 578T breast): 38.3 µM | TGI (NCI/ADR-RES ovarian): 10.2 µM | TGI (HL-60(TB) leukemia): 3.71 µM | TGI (A498 renal): 28.9 µM | TGI (DU-145 prostate): 24.1 µM | TGI (SF-295 CNS): 30.3 µM | TGI (SNB-19 CNS): 37.5 µM | TGI (OVCAR-5 ovarian): 27 µM | TGI (BT-549 breast): 20.4 µM | TGI (EKVX NSCLC): 10.3 µM | TGI (UACC-62 melanoma): 23 µM | TGI (K-562 leukemia): > 21.6 µM | TGI (LOX IMVI melanoma): < 0.0261 µM | TGI (HCT-15 colon): 10.4 µM | TGI (ACHN renal): 29.5 µM | TGI (SR leukemia): > 22 µM | TGI (SK-MEL-5 melanoma): 9.71 µM | TGI (MCF7 breast): 39.5 µM | TGI (NCI-H522 lung): 0.526 µM | TGI (OVCAR-8 ovarian): 5.11 µM | TGI (RXF 393 renal): 31.6 µM | TGI (PC-3 prostate): 31.6 µM | TGI (SK-MEL-28 melanoma): 13.1 µM | TGI (MDA-MB-435): 7.43 µM | TGI (MALME-3M melanoma): 4.41 µM | TGI (SN12C renal): 4.79 µM | TGI (SF-539 CNS): 40.4 µM | TGI (A549 NSCLC): 25.8 µM | TGI (OVCAR-4 ovarian): 15.7 µM | TGI (MDA-MB-231 breast): 11.8 µM | TGI (NCI-H460 lung): 41.5 µM | TGI (SNB-75 CNS): 23.4 µM | TGI (786-0 renal): 5.01 µM | TGI (SK-MEL-2 melanoma): 9.44 µM | TGI (HCT-116 colon): 7.77 µM | TGI (HT29 colon): 12.3 µM | TGI (MDA-N): 5.48 µM | TGI (NCI-H226 lung): 35.5 µM | TGI (HCC-2998 colon): 9.8 µM | TGI (HOP-92 NSCLC): 5.05 µM | TGI (UACC-257 melanoma): 15.1 µM | TGI (SK-OV-3 ovarian): 32.3 µM | TGI (HOP-62 NSCLC): 12 µM | TGI (UO-31 renal): 1.41 µM | TGI (SF-268 CNS): 25.8 µM | TGI (OVCAR-3 ovarian): 24.5 µM | TGI (NCI-H23 lung): 4.17 µM | TGI (KM12 colon): 11.5 µM | TGI (SW-620 colon): 14.2 µM

OC1COC2CC(Nc3ccccn3)OC12 (centres undefined)
TGI (T-47D breast): > 100 µM | TGI (IGROV1 ovarian): > 100 µM | TGI (RPMI-8226 leukemia): > 100 µM | TGI (U251 CNS): > 100 µM | TGI (CAKI-1 renal): > 100 µM | TGI (COLO 205 colon): > 100 µM | TGI (TK-10 renal): > 100 µM | TGI (HS 578T breast): > 100 µM | TGI (NCI/ADR-RES ovarian): > 100 µM | TGI (SF-295 CNS): > 100 µM | TGI (SNB-19 CNS): > 100 µM | TGI (OVCAR-5 ovarian): > 100 µM | TGI (BT-549 breast): > 100 µM | TGI (EKVX NSCLC): > 100 µM | TGI (UACC-62 melanoma): > 100 µM | TGI (K-562 leukemia): > 100 µM | TGI (MOLT-4 leukemia): > 100 µM | TGI (LOX IMVI melanoma): > 100 µM | TGI (HCT-15 colon): > 100 µM | TGI (ACHN renal): > 100 µM | TGI (SR leukemia): > 100 µM | TGI (SK-MEL-5 melanoma): > 100 µM | TGI (NCI-H522 lung): > 100 µM | TGI (OVCAR-8 ovarian): > 100 µM | TGI (RXF 393 renal): > 100 µM | TGI (PC-3 prostate): > 100 µM | TGI (SK-MEL-28 melanoma): > 100 µM | TGI (MDA-MB-435): > 100 µM | TGI (MALME-3M melanoma): > 100 µM | TGI (SN12C renal): > 100 µM | TGI (SF-539 CNS): > 100 µM | TGI (A549 NSCLC): > 100 µM | TGI (OVCAR-4 ovarian): > 100 µM | TGI (MDA-MB-231 breast): > 100 µM | TGI (NCI-H460 lung): > 100 µM | TGI (SNB-75 CNS): > 100 µM | TGI (786-0 renal): > 100 µM | TGI (SK-MEL-2 melanoma): > 100 µM | TGI (HCT-116 colon): > 100 µM | TGI (HT29 colon): > 100 µM | TGI (CCRF-CEM leukemia): > 100 µM | TGI (MDA-N): > 100 µM | TGI (M14 melanoma): > 100 µM | TGI (NCI-H226 lung): > 100 µM | TGI (HCC-2998 colon): > 100 µM | TGI (UACC-257 melanoma): > 100 µM | TGI (SK-OV-3 ovarian): > 100 µM | TGI (HOP-62 NSCLC): > 100 µM | TGI (UO-31 renal): > 100 µM | TGI (SF-268 CNS): > 100 µM | TGI (OVCAR-3 ovarian): > 100 µM | TGI (NCI-H23 lung): > 100 µM | TGI (KM12 colon): > 100 µM | TGI (SW-620 colon): > 100 µM
